Measured values published in ChEMBL document CHEMBL4184149, “Discovery and process development of a novel TACE inhibitor for the topical treatment of psoriasis” (Bioorg Med Chem, 2018).
≈ marks a conversion by molar mass, not a printed value. Calls of active or inactive are those of the source. No cut-off for these calls is given here.

Assays:
[1] = target: Disintegrin and metalloproteinase domain-containing protein 17 (Homo sapiens, UniProt P78536); assay: Inhibition of TACE in human PBMC assessed as reduction in LPS-induced TNFalpha production incubated overnight by HTRF assay; type: cell-based
[2] = Solubility of the compound in propylene glycol/ethanol96 at 30 mg/ml after 24 hrs by UV-spectrometric analysis; type: physicochemical; details: for solubility at 24 h: propylene glycol/ethanol96; for solubility: 24 h
[3] = test system: TK6; assay: Genotoxicity in p53-competent human TK6 cells in presence of Sprague-Dawley rat S9 fraction by GADD45alpha GFP reporter assay; type: toxicity, cell-based
[4] = test system: TK6; assay: Genotoxicity in p53-competent human TK6 cells in absence of Sprague-Dawley rat S9 fraction by GADD45alpha GFP reporter assay; type: toxicity, cell-based
[5] = (§1) Intrinsic clearance in human hepatocytes assessed per million cells at 1 uM by LC-MS/MS analysis; type: ADME, cell-based, Hepatocyte; details: human hepatocytes, read-out: CLH
[6] = test system: Hepatocyte; assay: as §1; type: ADME, cell-based; details: hepatocytes, 1 µM
[7] = Aqueous solubility of the compound in PBS at pH 7.4 at 20 degC after 24 hrs by HPLC analysis; type: physicochemical
[8] = Stability of the compound in propylene glycol/ethanol96 at 0.1 mg/ml measured up to 3 months by HPLC analysis; type: physicochemical; details: read-out: Stability
[9] = Half life in human neonatal keratinocytes at 1 uM by LC-MS/MS analysis; type: ADME, cell-based
[10] = Stability of the compound in propylene glycol/ethanol96 assessed as parent compound remaining at 0.1 mg/ml after 1 month at 40 degC by HPLC analysis; type: physicochemical; details: read-out: Stability
[11] = test system: Mus musculus; assay: Antiinflammatory activity in topically applied oxazolone-induced chronic skin inflammation hairless SKH1 mouse model assessed as decrease in skin lesions applied topically for 10 days in combination with oxazolone; type: functional, organism-based
[12] = Photoirritancy factor, ratio of EC50 for human neonatal keratinocytes under dark condition to EC50 for human neonatal keratinocytes under 5 J/cm2 UV light exposure; type: toxicity; details: read-out: Ratio EC50

Sequence of Disintegrin and metalloproteinase domain-containing protein 17 (P78536 whole entry, the tested form may be a part): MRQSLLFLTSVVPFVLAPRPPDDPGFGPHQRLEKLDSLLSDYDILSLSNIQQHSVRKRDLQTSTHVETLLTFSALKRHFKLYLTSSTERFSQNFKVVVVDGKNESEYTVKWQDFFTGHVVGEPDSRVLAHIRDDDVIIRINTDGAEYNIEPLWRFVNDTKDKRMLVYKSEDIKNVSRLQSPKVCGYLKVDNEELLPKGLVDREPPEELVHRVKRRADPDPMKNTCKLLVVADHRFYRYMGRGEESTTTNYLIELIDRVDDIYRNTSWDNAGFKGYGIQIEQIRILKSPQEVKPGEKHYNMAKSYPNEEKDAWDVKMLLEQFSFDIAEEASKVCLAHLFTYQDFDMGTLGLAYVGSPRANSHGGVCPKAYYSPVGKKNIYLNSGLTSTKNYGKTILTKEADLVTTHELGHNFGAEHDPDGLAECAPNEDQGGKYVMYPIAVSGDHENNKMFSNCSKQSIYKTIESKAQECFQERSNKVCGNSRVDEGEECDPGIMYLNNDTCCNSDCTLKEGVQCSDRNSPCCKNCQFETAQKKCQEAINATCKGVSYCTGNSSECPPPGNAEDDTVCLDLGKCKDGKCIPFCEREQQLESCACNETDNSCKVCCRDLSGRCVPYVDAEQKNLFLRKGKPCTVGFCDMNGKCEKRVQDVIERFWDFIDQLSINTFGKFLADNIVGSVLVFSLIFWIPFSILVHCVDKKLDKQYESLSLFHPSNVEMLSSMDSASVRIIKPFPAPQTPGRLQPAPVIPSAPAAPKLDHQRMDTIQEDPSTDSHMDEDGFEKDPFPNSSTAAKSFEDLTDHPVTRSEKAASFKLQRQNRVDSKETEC

| Compound | IC50 [1] [nM] | solubility at 24 h [2] [µM] | also measured |
| --- | --- | --- | --- |
| CC(=O)N1CCC(NS(=O)(=O)c2ccc(OCc3cc(C)nc4ccccc34)cc2)(C(=O)NO)CC1 | 61 | 59000 (≈ 30200 µg/mL) | Activity [3]: Toxic; Activity [4]: Toxic |
| CC(=O)N1CC(CC(=O)NO)(NS(=O)(=O)c2ccc(SCc3cc(C)nc4ccccc34)cc2)C1 | 720 | 1000 (≈ 515 µg/mL) |  |
| Cc1cc(COc2ccc(S(=O)(=O)NC3(CC(=O)NO)CN(C(=O)CC(C)C)C3)cc2)c2ccccc2n1 | 6 | 900 (≈ 487 µg/mL) | hepatocyte CLint at 1 µM [5]: 13 µL/min/1e6 cells |
| Cc1cc(COc2ccc(S(=O)(=O)NC3(CC(=O)NO)CN(C(=O)C(C)(C)N(C)C)C3)cc2)c2ccccc2n1 | 4.6 | 11000 (≈ 6270 µg/mL) | Stability [6]: Unstable; Activity [3]: Non-Toxic; Activity [4]: Non-Toxic |
| Cc1cc(COc2ccc(S(=O)(=O)NC3(C(=O)NO)CCCCC3)cc2)c2ccccc2n1 | 100 | 11000 (≈ 5170 µg/mL) | Activity [3]: Non-Toxic; Activity [4]: Non-Toxic |
| Cc1cc(COc2ccc(S(=O)(=O)NC3(C(=O)NO)CC3)cc2)c2ccccc2n1 | 210 | 46000 (≈ 19700 µg/mL) | Activity [3]: Toxic; Activity [4]: Toxic |
| CC(=O)N1CC2(C1)CC(NS(=O)(=O)c1ccc(OCc3cc(C)nc4ccccc34)cc1)(C(=O)NO)C2 | 36 | 17000 (≈ 8920 µg/mL) | solubility at 24 h [7]: 84 µM (≈ 44.1 µg/mL); remaining at 0.1 mg/ml [8]: 95%; hepatocyte CLint at 1 µM [5]: < 5 µL/min/1e6 cells; half-life at 1 µM [9]: > 24 h; Activity [3]: Toxic; Activity [4]: Toxic |
| Cc1cc(COc2ccc(S(=O)(=O)NC3(CC(=O)NO)CCC3)cc2)c2ccccc2n1 | 13 |  |  |
| Cc1cc(COc2ccc(S(=O)(=O)NCC(=O)NO)cc2)c2ccccc2n1 | 82 | 100 (≈ 40.1 µg/mL) |  |
| CC(=O)N1CC(CC(=O)NO)(NS(=O)(=O)c2ccc(OCc3cc(C)nc4ccccc34)cc2C)C1 | > 10000 | 900 (≈ 461 µg/mL) |  |
| Cc1cc(COc2ccc(S(=O)(=O)NC3(C(=O)NO)CN(C(=O)CC(C)C)C3)cc2)c2ccccc2n1 | 33 | 5000 (≈ 2630 µg/mL) | hepatocyte CLint at 1 µM [5]: 6 µL/min/1e6 cells |
| COCCN(C1(C(=O)NO)CN(C(=O)C(C)C)C1)S(=O)(=O)c1ccc(OCc2cc(C)nc3ccccc23)cc1 | 31 | 8900 (≈ 5080 µg/mL) | hepatocyte CLint at 1 µM [5]: 18 µL/min/1e6 cells |
| Cc1cc(COc2ccc(S(=O)(=O)NC(C)(C)CC(=O)NO)cc2)c2ccccc2n1 | 43 | 1600 (≈ 710 µg/mL) |  |
| Cc1cc(COc2ccc(S(=O)(=O)NC3(C(=O)NO)CN(C(=O)C(C)C)C3)cc2)c2ccccc2n1 | 16 | 17000 (≈ 8710 µg/mL) | hepatocyte CLint at 1 µM [5]: < 5 µL/min/1e6 cells; Activity [3]: Non-Toxic; Activity [4]: Non-Toxic |
| CCN(C1(C(=O)NO)CN(C(=O)C(C)C)C1)S(=O)(=O)c1ccc(OCc2cc(C)nc3ccccc23)cc1 | 37 | 44000 (≈ 23800 µg/mL) | hepatocyte CLint at 1 µM [5]: 11 µL/min/1e6 cells |
| Cc1cc(COc2ccc(S(=O)(=O)NC(C)(C)C(=O)NO)cc2)c2ccccc2n1 | 140 |  |  |
| Cc1cc(COc2ccc(S(=O)(=O)NC3(C(=O)NO)CN(CCC(F)(F)F)C3)cc2)c2ccccc2n1 |  |  | remaining at 730.5 h, 0.1 mg/ml [10]: 58% |
| CCCCC(=O)O[C@]1(C(=O)CO)[C@@H](C)C[C@H]2[C@@H]3CCC4=CC(=O)C=C[C@]4(C)[C@@]3(F)[C@@H](O)C[C@@]21C |  |  | Activity [11]: Active |
| Cc1cc(COc2ccc(S(=O)(=O)NC[C@@H](C(=O)NO)N3CCCCC3)cc2)c2ccccc2n1 |  | 8000 (≈ 3990 µg/mL) | solubility at 24 h [7]: < 1 µM; remaining at 0.1 mg/ml [8]: 89%; hepatocyte CLint at 1 µM [5]: 24 µL/min/1e6 cells; half-life at 1 µM [9]: > 24 h; Activity [3]: Non-Toxic; Activity [4]: Non-Toxic |
| CC(=O)N1CC(CC(=O)NO)(N(C)S(=O)(=O)c2ccc(OCc3cc(C)nc4ccccc34)cc2)C1 | 590 |  |  |

| Compound | IC50 [1] [nM] | solubility at 24 h [2] [µM] | also measured |
| --- | --- | --- | --- |
| Cc1cc(COc2ccc(S(=O)(=O)NCCC(=O)NO)cc2)c2ccccc2n1 | 2300 | 4100 (≈ 1700 µg/mL) |  |
| CCc1cc(COc2ccc(S(=O)(=O)NC3(CC(=O)NO)CN(C(C)=O)C3)cc2)c2ccccc2n1 | 27 | 400 (≈ 205 µg/mL) |  |
| Cc1cc(COc2ccc(S(=O)(=O)NC3(CC(=O)NO)CN(CCC(F)(F)F)C3)cc2)c2ccccc2n1 | 10 | 3400 (≈ 1880 µg/mL) | remaining at 730.5 h, 0.1 mg/ml [10]: 88% |
| Cc1cc(COc2ccc(S(=O)(=O)NC3(CC(=O)NO)CC3)cc2)c2ccccc2n1 | 84 | 1600 (≈ 706 µg/mL) |  |
| Cc1cc(COc2ccc(S(=O)(=O)NC3(CC(=O)NO)CCN(C(=O)CC(C)C)C3)cc2)c2ccccc2n1 (stereo in doubt; 18h) | 42 |  | solubility [2]: 7900 µM (≈ 4380 µg/mL) |
| CC(=O)N1CC(CC(=O)NO)(NS(=O)(=O)c2ccc(OCc3cc(C)nc4ccccc34)cc2)C1 | 8 | 800 (≈ 399 µg/mL) | solubility at 24 h [7]: < 0.5 µM; remaining at 0.1 mg/ml [8]: 98%; hepatocyte CLint at 1 µM [5]: < 5 µL/min/1e6 cells; half-life at 1 µM [9]: > 24 h; selectivity ratio [12]: 1; Activity [3]: Non-Toxic; Activity [4]: Non-Toxic |
| Cc1cc(COc2ccc(S(=O)(=O)NC3(C(=O)NO)CCC3)cc2)c2ccccc2n1 | 30 |  | Activity [3]: Toxic; Activity [4]: Toxic |
| CC(=O)N1CC(CC(=O)NO)(NS(=O)(=O)c2ccc(OCc3cc(C)nc4ccccc34)c(C)c2)C1 | > 10000 | 400 (≈ 205 µg/mL) |  |
| Cc1cc(COc2ccc(S(=O)(=O)NC3(CC(=O)NO)CCN(C(=O)CC(C)C)C3)cc2)c2ccccc2n1 (stereo in doubt; 18g) | 8 |  | solubility [2]: 17000 µM (≈ 9430 µg/mL); Activity [3]: Toxic; Activity [4]: Toxic |
| CC(=O)N1CC2(C1)CC(CC(=O)NO)(NS(=O)(=O)c1ccc(OCc3cc(C)nc4ccccc34)cc1)C2 | 4 | 3000 (≈ 1620 µg/mL) |  |
| Cc1cc(COc2ccc(S(=O)(=O)N(C(C)C)C3(C(=O)NO)CN(C(=O)C(C)C)C3)cc2)c2ccccc2n1 | 790 | 2200 (≈ 1220 µg/mL) | hepatocyte CLint at 1 µM [5]: 17 µL/min/1e6 cells |
| Cc1cc(COc2ccc(S(=O)(=O)N(C)C3(C(=O)NO)CN(CCC(F)(F)F)C3)cc2)c2ccccc2n1 |  |  | remaining at 730.5 h, 0.1 mg/ml [10]: 98% |
| CCCCN1CC(CC(=O)NO)(NS(=O)(=O)c2ccc(OCc3cc(C)nc4ccccc34)cc2)C1 | 12 | 4900 (≈ 2510 µg/mL) | solubility at 24 h [7]: 70 µM (≈ 35.9 µg/mL); remaining at 730.5 h, 0.1 mg/ml [10]: 72% |
| Cc1cc(COc2ccc(S(=O)(=O)NC3(C(=O)NO)CCCC3)cc2)c2ccccc2n1 | 68 | 200 (≈ 91.1 µg/mL) |  |
| Cc1cc(COc2ccc(S(=O)(=O)NC3(CC(=O)NO)COC3)cc2)c2ccccc2n1 | 10 | 200 (≈ 91.5 µg/mL) |  |
| Cc1cc(COc2ccc(S(=O)(=O)NC3(CC(=O)NO)CN(C(=O)OC(C)C)C3)cc2)c2ccccc2n1 | 6 | 1100 (≈ 597 µg/mL) | solubility at 24 h [7]: 80 µM (≈ 43.4 µg/mL) |
| CC#CCOc1ccc(S(=O)(=O)NC2(CC(=O)NO)CN(C(C)=O)C2)cc1 | 1300 | 1800 (≈ 712 µg/mL) |  |
| CC(=O)N1CC(CC(=O)NO)(NS(=O)(=O)c2ccc(Cc3cc(C)nc4ccccc34)cc2)C1 | 240 | 1900 (≈ 917 µg/mL) |  |
| CC(=O)N1CC(CC(=O)NO)(NS(=O)(=O)c2ccc(OCc3cc(C)nc4c(F)cccc34)cc2)C1 | 61 |  |  |
| Cc1cc(COc2ccc(S(=O)(=O)NC3(CC(=O)NO)CN(C(=O)N4CCCCC4)C3)cc2)c2ccccc2n1 | 5 | 500 (≈ 284 µg/mL) | solubility at 24 h [7]: 80 µM (≈ 45.4 µg/mL) |
